{"source": "patent US20110207760A1", "about": "“SN-38 COMPOSITIONS” (priority 2010, published 2011)", "experiment": "Pharmacokinetics of SN-38 and SN-38G after i.v. dosing of SN-38 in 40% SBECD", "assay_type": "in vivo, Female Sprague-Dawley rats", "conditions": "rat, i.v.", "description": "Female Sprague-Dawley rats, 4 animals per group received i.v. injections of SN-38 (doses 0.65 mg/kg and 2 mg/kg) in 40% SBECD. The SN-38 solution for the treatment was prepared by the dilution of concentrated composition of the Example 1 with water. The blood plasma samples were collected from each group of animals, extracted using liquid extraction with cold methanol/acetonitrile mixture (1:1 v/v), and analyzed using a HPLC method with fluorescent detection. The results, including levels of SN-38 and SN-38G in plasma and calculated values of area under the curve (AUC) for SN-38 and SN-38G are presented in Tables 5 and 6 below."}
{"smiles": "CCc1c2c(nc3ccc(O[C@@H]4O[C@H](C(=O)O)[C@@H](O)[C@H](O)[C@H]4O)cc13)-c1cc3c(c(=O)n1C2)COC(=O)[C@]3(O)CC", "note": "[SN-38G, SN-38 glucuronide]", "values": [{"measurement": "AUC", "setting": "dosing SN-38 0.65 mg/kg in 40% SBECD", "result": 275, "unit": "ng·h/mL"}, {"measurement": "Plasma levels", "setting": "dosing SN-38 0.65 mg/kg in 40% SBECD, 0.17 h", "result": 266.5, "unit": "ng/mL"}, {"measurement": "Plasma levels", "setting": "dosing SN-38 0.65 mg/kg in 40% SBECD, 0.5 h", "result": 150.7, "unit": "ng/mL"}, {"measurement": "Plasma levels", "setting": "dosing SN-38 0.65 mg/kg in 40% SBECD, 0.75 h", "result": 97.1, "unit": "ng/mL"}, {"measurement": "Plasma levels", "setting": "dosing SN-38 0.65 mg/kg in 40% SBECD, 1 h", "result": 61.5, "unit": "ng/mL"}, {"measurement": "Plasma levels", "setting": "dosing SN-38 0.65 mg/kg in 40% SBECD, 3 h", "result": 15.7, "unit": "ng/mL"}, {"measurement": "Plasma levels", "setting": "dosing SN-38 0.65 mg/kg in 40% SBECD, 6 h", "result": 6.0, "unit": "ng/mL"}, {"measurement": "AUC", "setting": "dosing SN-38 2 mg/kg in 40% SBECD", "result": 1085, "unit": "ng·h/mL"}, {"measurement": "Plasma levels", "setting": "dosing SN-38 2 mg/kg in 40% SBECD, 0.17 h", "result": 1282.0, "unit": "ng/mL"}, {"measurement": "Plasma levels", "setting": "dosing SN-38 2 mg/kg in 40% SBECD, 0.5 h", "result": 747.7, "unit": "ng/mL"}, {"measurement": "Plasma levels", "setting": "dosing SN-38 2 mg/kg in 40% SBECD, 0.75 h", "result": 289.8, "unit": "ng/mL"}, {"measurement": "Plasma levels", "setting": "dosing SN-38 2 mg/kg in 40% SBECD, 1 h", "result": 239.9, "unit": "ng/mL"}, {"measurement": "Plasma levels", "setting": "dosing SN-38 2 mg/kg in 40% SBECD, 3 h", "result": 27.6, "unit": "ng/mL"}, {"measurement": "Plasma levels", "setting": "dosing SN-38 2 mg/kg in 40% SBECD, 6 h", "result": 18.5, "unit": "ng/mL"}]}
